Here are results for four compounds from patent US20230390192A1, “GASTRO RETENTIVE DOSAGE FORMS COMPRISING DEUTETRABENAZINE” (AUSPEX PHARMACEUTICALS, INC., priority 2020, published 2023).

Data set [1] is described as follows: Deutetrabenazine/deuHTBZ Cmax ratio in humans. It is filed as in vivo.
For data set [2] the following is noted: in vivo; cited from earlier work.
A short description of a further data set: Human [14C]-AME study. Particulars: humans, dosed as powder in capsule (PIC).
Data set [3] in a line: Drug solubility at different pH.
Data set [4] can be described thus: Rat perfusion model, intestinal permeability/absorption.
Data set [5] in a line: Single-dose partial crossover comparative bioavailability study in dogs.
Method: The trial was conducted as an open-label, randomized, single-dose, partial crossover comparative bioavailability study. The study was designed to determine the AUC0-t, AUC0-24, Cmax and Tmax of deutetrabenazine and total deuterated α- and β-dihydrotetrabenazine (deuHTBZ) metabolites. The sample group consisted of 4 male beagle dogs. Each dog was administered two treatments. […] A washout period of 14 days was kept before crossing over to the next treatment. Each dog was administered a single oral dose with 10 ml water. Prior to each dose administration, the dogs were pretreated with pentagastrin (to stimulate gastric acid secretion.
Blood samples were collected before dosing and at predetermined time points through 24 hours post-dosing. The samples were analyzed for deutetrabenazine and total deuHTBZ in plasma using an LC-MS/MS method.
Data set [6] in a line: Particle size distribution by laser diffractometry (Mastersizer 3000). Format: physicochemical. As to conditions: drug substance, dry measurement. From the text:
As used herein, the term “particle size distribution” refers to the statistical distribution of the volume share related of all particle sizes and is represented by D90, D50 or D10 values. The D90 value of the integral volume distribution is defined in the context of this invention as the particle diameter, at which 90 percent by volume of the particles have a smaller diameter than the diameter, which corresponds to the D90 value. For example, a D90 of 15 μm, means that 90% (by volume) of the particles have a diameter less than or equal to 15 μm. A D50 of 10 μm, means that 50% (by volume) of the particles have a diameter less than or equal to 10 μm. A D10 of 3 μm, means that 10% (by volume) of the particles have a diameter less than or equal to 3 μm. Particle size distribution is determined by means of laser diffractometry. More specifically, the particle size distribution is determined using a Mastersizer 3000 from Malvern Instruments.
The deutetrabenazine particle size distributions following manufacture (untreated), milling (quadro co-mill) and micronization (air jet mill) are shown in Table 1.
For dry measurement of the milled and unmilled deutetrabenazine the following settings are preferably used: […]

The structures appear in SMILES notation.

For orientation: solubility means how much of the substance goes into solution per volume. The low end stands for little dissolved substance, the high end for much dissolved substance. As to `[2H]C([2H])([2H])Oc1cc2c(cc1OC([2H])([2H])[2H])[C@H]1CC(=O)[C@H](CC(C)C)CN1CC2` [Deutetrabenazine, (RR,SS)-1,3,4,6,7,11b-hexahydro-9,10-di(methoxy-D3)-3-(2-methylpropyl)-2H-benzo[a]quinolizin-2-one], the “deutetrabenazine/deuHTBZ Cmax ratio” value in data set [1] was under 1%; in data set [5], “about 10%”. The “half-life of active metabolites relative to tetrabenazine” value in data set [2] is “increased”. For the same compound, the “radioactive dose recovered in urine” value in the data set “Human [14C]-AME study” was “approximately 80%”. In addition, the values for the solubility entry in data set [3] (acidic environment (pH<4)) and in data set [3] (pH ≥4) were “relatively good solubility” and under 2300 µg/mL, respectively. Further, the “permeability through the small intestinal (SI) segments” value in data set [4] (rat perfusion model) is “permeable”. In addition, the “levels of absorption in the lower GI (rank order of segments)” value in data set [4] (rats) is given as “Jejunum<Mid-small intestine<Colon<Ileum”. Moreover, the ileum absorption entry in data set [4] (rats, lower GI) is on record as “about 0.0006 cm/sec”.

In data set [6], `[2H]C([2H])([2H])Oc1cc2c(cc1OC([2H])([2H])[2H])C1CC(=O)C(CC(C)C)CN1CC2` (stereo not drawn) [co-milled, deutetrabenazine] yielded a D10 of 6.11 μm, a D50 of 33.55 μm and a D90 of 131.55 μm.

As to `[2H]C([2H])([2H])Oc1cc2c(cc1OC([2H])([2H])[2H])C1CC(=O)C(CC(C)C)CN1CC2` (stereo not drawn) [micro-milled, deutetrabenazine], in data set [6], the D10 was determined as 1.08 μm, the D50 worked out at 3.31 μm and the D90 is reported as 7.05 μm.

In data set [6], `[2H]C([2H])([2H])Oc1cc2c(cc1OC([2H])([2H])[2H])C1CC(=O)C(CC(C)C)CN1CC2` (stereo not drawn) [unmilled, deutetrabenazine] displayed a D10 of 9.08 μm, a D50 of 59.66 μm and a D90 of 213.07 μm.
